The subject of experiment [1] is chemically induced inflammation of both the skin and the arteries. Particulars: rats; cited from earlier work.
Experiment [2] concerns induratio penis plastica at an advanced chronic stage. Put plainly: Example 6: oral propionyl L-carnitine versus oral acetyl L-carnitine, each plus intraplaque verapamil. The experiment is classed as in vivo, human. As for the experimental part:
20 subjects (mean age 48, range 40-61) with induratio penis plastica at an advanced chronic stage were randomised to two groups of 10 patients each. The first group was submitted to therapy with oral propionyl L-carnitine (PLC) 1×2 g/day 3 months and intraplaque verapamil 10 mg (10 infiltrations, 1 a week), while the second group was submitted to therapy with oral acetyl L-carnitine (ALC) 1×2 g/day for 3 months+intraplaque verapamil 10 mg (10 infiltrations, 1 a week). The variables measured were plaque area by dynamic colour Doppler penile ultrasonography. In view of the limited number of subjects in the sample it was not possible to carry out any analysis of other data; in any event, the size of the plaque is the most important variable when monitoring La Peyronie's disease, since all the other symptoms depend on the extent of the plaque (Belgrano, ibid.).
The results are presented in Table 14, where the data are expressed as mean±standard deviation (S.D.).

For experiment [3], the system named is La Peyronie's disease in the early stages. As to conditions: oral treatment; acute and early chronic stages; cited from earlier work.
The test system of experiment [4] is induratio penis plastica in the chronic stage. Put plainly: Example 3: intraplaque triamcinolone acetonide versus intraplaque propionyl L-carnitine. The experiment is classed as in vivo, human. As to the method: (§1) The examples are based on a limited number of patients and therefore the analysis of the results was carried out only with regard to the fundamental characteristics of the disease, namely plaque area in mm^2 (as measured by means of dynamic colour Doppler ultrasonography) and curvature of the artificially erect penis induced by intracavernous injection of 20 μg of prostaglandin E1.
In this case […] the study population consisted of 34 patients (mean age 50, range 44-63) with induratio penis plastica in the chronic stage, who presented an irremediable intolerance to intraplaque verapamil.
17 were submitted to intraplaque infiltrations with propionyl L-carnitine 300 mg, 1 infiltration per week for 10 weeks, and 17 to intraplaque infiltrations with triamcinolone acetonide 40 mg (Kenacort® Squibb), 1 infiltration per week for 10 weeks. The variables measured were plaque area in mm^2 by dynamic colour Doppler ultrasonography and the curvature of the artificially erect penis in degrees.
The results are presented in Table 3, where the data are expressed as mean±standard deviation (S.D.).

Experiment [5] deals with induratio penis plastica in the early chronic stage. The experiment is described as follows: Example 2: oral tamoxifen versus intramuscular propionyl L-carnitine, randomised patients. The experiment is classed as in vivo, human. As for the experimental part:
as §1
30 subjects (mean age 50, range 42-63) with induratio penis plastica in the early chronic stage were randomised to two groups of 15 patients each. The first group was submitted to therapy with intramuscular propionyl L-carnitine 300×2 mg/day for 3 months, and the second group to therapy with oral tamoxifen 20×2 mg/day. The variables measured were plaque area (in all subjects) and penile curvature, which was present in 12 subjects per group. […] Intraplaque verapamil was not used in these patients.
The results are presented in Table 2, where the data are expressed as mean±standard deviation (S.D.).

Experiment [6] concerns advanced La Peyronie's disease. Put plainly: Example 4: randomised double-blind study, intraplaque verapamil plus oral propionyl L-carnitine or tamoxifen. The experiment is classed as in vivo, human. As to conditions: curvature, plaque area, I.I.E.F. 15 score, EDV, RI.
Experimental: The study was conducted according to a randomised double-blind protocol. […] The data were collected 6 months after the end of therapy when the initial history taking and semeiological examination were repeated. […] I.I.E.F. 15 score; • V. Peak systolic velocity (PSV) (cm/sec), end-diastolic velocity (EDV) (cm/sec) and the resistivity index (RI) of the right and left cavernous arteries using dynamic Doppler ultrasonography; • VI. […] Need for penis straightening surgery and/or for straightening and a prosthesis, the results being classified as presence or absence of any such need; • VIII. Side effects classified as presence or absence of side effects.
Experiment [7] relates to induratio penis plastica (La Peyronie's disease) at the chronic stage. Put plainly: Example 1: oral tamoxifen versus intravenous propionyl L-carnitine, randomised patients. The experiment is classed as in vivo, human. As for the experimental part:
as §1
40 subjects (mean age 52, range 44-61) with induratio penis plastica (La Peyronie's disease) at the chronic stage were randomised […] intravenous propionyl L-carnitine 300×2 mg/day for 3 months, and the second group to therapy with oral tamoxifen 20×2 mg/day. The variables measured were plaque area by means of dynamic colour Doppler ultrasonography and penile curvature, which was present in 16 patients per group. […] Intraplaque verapamil was not used in these patients.
The results are presented in Table 1, where the data are expressed as mean±standard deviation (S.D.).

Setting [8] is: after therapy, oral 1×2 g/day for 3 months + intraplaque verapamil 10 mg (10 infiltrations, 1 a week).
The mark [9] stands for this setting: after therapy, intraplaque PLC 300 mg or triamcinolone acetonide 40 mg, 1 infiltration per week for 10 weeks.
The mark [10] stands for this setting: after therapy, PLC intramuscular 300×2 mg/day, tamoxifen oral 20×2 mg/day, 3 months.
Setting [11] is: before therapy, 12 subjects per group.
The mark [12] stands for this setting: after therapy, PLC intravenous 300×2 mg/day, tamoxifen oral 20×2 mg/day, 3 months.
Where [13] appears, read: before therapy, artificially erect penis, 16 patients per group.

As for `CC(=O)O[C@H](CC(=O)[O-])C[N+](C)(C)C` [ALC, acetyl L-carnitine, reference compound], the “Protection against chemically induced inflammation, in words” value (“Protection” below) in experiment [1] was “not being shared”. Also, the Plaque area in experiment [2] (setting [8]) was found to be 11.8 mm^2; in experiment [2] (before therapy, mean) it was 16.3 mm^2. Further, the “Activity in the treatment of La Peyronie's disease, in words” value in experiment [3] is “significantly more active than tamoxifen”.
For the molecule `C[N+](C)(C)C[C@H](O)CC(=O)[O-]` [L-carnitine], the “Protection” value in experiment [1] is listed as “not being shared”.
With `CCC(=O)O[C@H](CC(=O)[O-])C[N+](C)(C)C` [PLC, propionyl L-carnitine], the “Protection” value in experiment [1] is “capable of affording protection”. The Curvature in experiment [4] (setting [9]) stood at 14.77 degrees; in experiment [4] (before therapy), 20.38 degrees; in experiment [5] (setting [10]), 13.00 degrees; in experiment [5] (setting [11]), 17.75 degrees; in experiment [7] (setting [12]) it was 20.06 degrees; in experiment [7] (setting [13]), 25.31 degrees. Further, the Plaque area is 15.47 mm^2 in experiment [4] (setting [9]); 26.65 mm^2 in experiment [4] (before therapy, mean); 6.47 mm^2 in experiment [5] (setting [10]); 11.1 mm^2 in experiment [5] (before therapy, mean); 7.9 mm^2 in experiment [2] (setting [8]); 16.4 + mm^2 in experiment [2] (before therapy, mean). In addition, the Plaque area in experiment [7] (setting [12]) is reported as 19.2 mm^2; in experiment [7] (before therapy, mean), 25.6 mm^2. Also, the “Activity on plaque area and curvature, in words” value in experiment [4] (intraplaque PLC compared with intraplaque triamcinolone acetonide) is “significantly more active than triamcinolone acetonide”. Further, the “Reduction of plaque area and curvature of the artificially erect penis, in words” value in experiment [5] (intramuscular PLC compared with oral tamoxifen) and in experiment [7] (intravenous PLC compared with oral tamoxifen) was “significantly greater extent than tamoxifen” each time. Also, the “Reduction of plaque area, in words” value in experiment [2] (PLC plus intraplaque verapamil compared with ALC plus intraplaque verapamil) is given as “significantly greater extent than acetyl L-carnitine plus intraplaque verapamil”. For the same molecule, the “Activity on the variables characterising the disease, in words” value in experiment [6] is “significantly more active than combined tamoxifen and verapamil”.
With `CC/C(=C(\c1ccccc1)c1ccc(OCCN(C)C)cc1)c1ccccc1` [Tamoxifen, tamoxifen, reference compound], the Curvature in experiment [5] (setting [10]) was 16.58 degrees; in experiment [5] (setting [11]), 18.08 degrees; in experiment [7] (setting [12]) it was 23.06 degrees; in experiment [7] (setting [13]), 24.31 degrees. Besides, the Plaque area turned out to be 9.07 mm^2 in experiment [5] (setting [10]); 11.6 mm^2 in experiment [5] (before therapy, mean); 25.2 mm^2 in experiment [7] (setting [12]); 26.8 mm^2 in experiment [7] (before therapy, mean).
With `CC1(C)O[C@@H]2C[C@H]3[C@@H]4CCC5=CC(=O)C=C[C@]5(C)[C@@]4(F)[C@@H](O)C[C@]3(C)[C@]2(C(=O)CO)O1` [Triamcinolone, triamcinolone acetonide, reference compound], the values for the Curvature in experiment [4] (setting [9]) and in experiment [4] (before therapy) were 23.15 degrees and 22.69 degrees, respectively. In addition, the Plaque area in experiment [4] (setting [9]) is given as 25.35 mm^2; in experiment [4] (before therapy, mean), 25.23 mm^2.

(Values after patent US20050038044A1, “Use of propionyl-carnitine or one of its pharmacologically acceptable salts for the preparation of a medicine for the treatment of la peyronie's disease” (priority 2001, published 2005).)
